Biological target: T1, Prostaglandin G/H synthase 1 (Ovis aries, UniProt P05979)
T1 sequence (P05979 whole entry): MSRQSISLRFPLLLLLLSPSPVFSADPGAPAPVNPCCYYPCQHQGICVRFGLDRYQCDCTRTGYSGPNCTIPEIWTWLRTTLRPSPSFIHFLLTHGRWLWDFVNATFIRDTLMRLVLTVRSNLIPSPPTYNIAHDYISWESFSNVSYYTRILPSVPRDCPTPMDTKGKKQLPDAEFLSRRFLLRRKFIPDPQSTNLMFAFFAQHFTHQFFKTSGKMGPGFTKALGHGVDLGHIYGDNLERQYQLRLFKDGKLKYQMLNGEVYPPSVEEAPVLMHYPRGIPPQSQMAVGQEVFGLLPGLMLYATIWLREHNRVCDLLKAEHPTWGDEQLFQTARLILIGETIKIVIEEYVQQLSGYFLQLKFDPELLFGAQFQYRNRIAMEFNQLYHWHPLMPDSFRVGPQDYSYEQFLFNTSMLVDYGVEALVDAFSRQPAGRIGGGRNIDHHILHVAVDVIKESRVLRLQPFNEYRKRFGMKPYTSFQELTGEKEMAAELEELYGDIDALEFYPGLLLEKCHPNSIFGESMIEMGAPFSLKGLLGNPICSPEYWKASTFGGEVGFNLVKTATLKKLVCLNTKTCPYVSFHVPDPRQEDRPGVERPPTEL
Assay: Inhibition of ovine COX1

IC50: 87.5 µM
SMILES: COc1cc(/C=C/C(=O)c2c(O)cc(C)c(Cl)c2C)cc(OC)c1OC

From BindingDB's records for doi:10.1016/j.ejmech.2013.04.056 (Jamia Hamdard (Hamdard University), 2013)
